From article doi:10.1101/2020.08.18.255380v4 (biorxiv, 2021)

Experiments:
DalS [1] = target: DalS (Salmonella enterica, UniProt Q8ZPA3); assay: fluorescence; type: binding
DalS [2] = target: DalS (Salmonella enterica, UniProt Q8ZPA3, A147S/A76D/D216E/F117L/T197Y/Y148Q); assay: biochemical
DalS [3] = target: DalS (Salmonella enterica, UniProt Q8ZPA3, A147S); assay: biochemical
DalS [4] = target: DalS (Salmonella enterica, UniProt Q8ZPA3, A147S/F117L/Y148Q); assay: biochemical
DalS [5] = target: DalS (Salmonella enterica, UniProt Q8ZPA3, Y148Q); assay: biochemical
DalS [6] = target: DalS (Salmonella enterica, UniProt Q8ZPA3, A147S/A76D/D216E/F117L/S60R/Y148Q); assay: biochemical
DalS [7] = target: DalS (Salmonella enterica, UniProt Q8ZPA3, F117L); assay: biochemical

Compound: C[C@@H](N)C(=O)O [D-alanine]
- Kd (DalS [1]): 5.4 ± 0.4 µM
- Kd (DalS [2]): 14 ± 1 µM
- Kd (DalS [3]): 620 ± 30 nM

Compound: N[C@H](CO)C(=O)O [D-serine]
- Kd (DalS [1]): 12 ± 1 µM
- Kd (DalS [4]): 43 ± 1 µM
- Kd (DalS [2]): 4.8 ± 0.2 µM
- Kd (DalS [5]): 101 ± 3 µM
- Kd (DalS [6]): 70 ± 17 µM
- Kd (DalS [7]): 3.7 ± 0.2 µM
- Kd (DalS [3]): 1800 ± 400 nM

Compound: NCC(=O)O [glycine]
- Kd (DalS [1]): 5 ± 1 µM
- Kd (DalS [2]): 40 ± 2 µM
